# Assay results taken from PubChem BioAssay (NCI).
#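 GI50 marks 50% less growth. TGI: concentration producing complete growth inhibition.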
# How the values were obtained:
# Test in all cases: NCI-60 cell line screen, 384-well format
# [1] = tested on: SK-MEL-5 melanoma
# [2] = tested on: SF-268 CNS
# [3] = tested on: IGROV1 ovarian
# [4] = tested on: ACHN renal
# [5] = tested on: SK-OV-3 ovarian
# [6] = tested on: T-47D breast
# [7] = tested on: HOP-92 NSCLC
# [8] = tested on: HS 578T breast
# [9] = tested on: OVCAR-3 ovarian
# [10] = tested on: CAKI-1 renal
# [11] = tested on: HOP-62 NSCLC
# [12] = tested on: SN12C renal
# [13] = tested on: HT29 colon
# [14] = tested on: MDA-MB-435 melanoma
# [15] = tested on: SNB-75 CNS
# [16] = tested on: EKVX NSCLC
# [17] = tested on: UO-31 renal
# [18] = tested on: SR leukemia
# [19] = tested on: MCF7 breast
# [20] = tested on: A549 NSCLC
# [21] = tested on: SK-MEL-2 melanoma
# [22] = tested on: OVCAR-4 ovarian
# [23] = tested on: HL-60(TB) leukemia
# [24] = tested on: PC-3 prostate
# [25] = tested on: RXF 393 renal
# [26] = tested on: SF-295 CNS
# [27] = tested on: OVCAR-8 ovarian
# [28] = tested on: NCI-H322M lung
# [29] = tested on: SF-539 CNS
# [30] = tested on: NCI-H522 lung
# [31] = tested on: A498 renal
# [32] = tested on: KM12 colon
# [33] = tested on: OVCAR-5 ovarian
# [34] = tested on: MDA-MB-468 breast
# [35] = tested on: NCI-H460 NSCLC
# [36] = tested on: BT-549 breast
# [37] = tested on: TK-10 renal
# [38] = tested on: K-562 leukemia
# [39] = tested on: DU-145 prostate
# [40] = tested on: 786-0 renal
# [41] = tested on: M14 melanoma
# [42] = tested on: SW-620 colon
# [43] = tested on: NCI-H23 lung
# [44] = tested on: UACC-257 melanoma
# [45] = tested on: MALME-3M melanoma
# [46] = tested on: COLO 205 colon
# [47] = tested on: MOLT-4 leukemia
# [48] = tested on: NCI-H226 lung
# [49] = tested on: SK-MEL-28 melanoma
# [50] = tested on: HCT-15 colon
# [51] = tested on: MDA-MB-231 breast
# [52] = tested on: UACC-62 melanoma
# [53] = tested on: SNB-19 CNS
# [54] = tested on: U251 glioblastoma
# [55] = tested on: HCT-116 colon
smiles,measurement,setting,value
Cc1nc(Nc2n[nH]c3c2CN(C(=O)N[C@H](CN(C)C)c2ccccc2)C3(C)C)c2sccc2n1,GI50,[1],< 10 nM
same,TGI,[1],827 nM
same,GI50,[2],118 nM
same,TGI,[2],1350 nM
same,GI50,[3],< 10 nM
same,TGI,[3],449 nM
same,GI50,[4],35.6 nM
same,TGI,[4],3060 nM
same,GI50,[5],178 nM
same,TGI,[5],8090 nM
same,GI50,[6],576 nM
same,TGI,[6],3840 nM
same,GI50,[7],131 nM
same,TGI,[7],911 nM
same,GI50,[8],93.6 nM
same,TGI,[8],763 nM
same,GI50,[9],< 10 nM
same,TGI,[9],152 nM
same,GI50,[10],52.2 nM
same,TGI,[10],2790 nM
same,GI50,[11],< 10 nM
same,TGI,[11],113 nM
same,GI50,[12],< 10 nM
same,TGI,[12],1150 nM
same,GI50,[13],10.8 nM
same,TGI,[13],1750 nM
same,GI50,[14],< 10 nM
same,TGI,[14],1670 nM
same,GI50,[15],274 nM
same,TGI,[15],1410 nM
same,GI50,[16],195 nM
same,TGI,[16],2140 nM
same,GI50,[17],1610 nM
same,TGI,[17],14400 nM
same,GI50,[18],< 10 nM
same,GI50,[19],< 10 nM
same,TGI,[19],193 nM
same,GI50,[20],39.6 nM
same,TGI,[20],61700 nM
same,GI50,[21],< 10 nM
same,TGI,[21],207 nM
same,GI50,[22],40.6 nM
same,TGI,[22],3790 nM
same,GI50,[23],< 10 nM
same,TGI,[23],117 nM
same,GI50,[24],< 10 nM
same,TGI,[24],642 nM
same,GI50,[25],144 nM
same,TGI,[25],960 nM
same,GI50,[26],57.1 nM
same,TGI,[26],2290 nM
same,GI50,[27],33.3 nM
same,TGI,[27],1470 nM
same,GI50,[28],174 nM
same,TGI,[28],1580 nM
same,GI50,[29],< 10 nM
same,TGI,[29],1020 nM
same,GI50,[30],< 10 nM
same,TGI,[30],214 nM
same,GI50,[31],30.1 nM
same,TGI,[31],2380 nM
same,GI50,[32],< 10 nM
same,TGI,[32],1060 nM
same,GI50,[33],61.3 nM
same,TGI,[33],11200 nM
same,GI50,[34],< 10 nM
same,TGI,[34],431 nM
same,GI50,[35],< 10 nM
same,TGI,[35],1300 nM
same,GI50,[36],< 10 nM
same,TGI,[36],109 nM
same,GI50,[37],179 nM
same,TGI,[37],11000 nM
same,GI50,[38],< 10 nM
same,TGI,[38],3390 nM
same,GI50,[39],< 10 nM
same,TGI,[39],10200 nM
same,GI50,[40],58.1 nM
same,TGI,[40],1920 nM
same,GI50,[41],18.8 nM
same,TGI,[41],1500 nM
same,GI50,[42],< 10 nM
same,TGI,[42],2210 nM
same,GI50,[43],< 10 nM
same,TGI,[43],214 nM
same,GI50,[44],19 nM
same,TGI,[44],632 nM
same,GI50,[45],< 10 nM
same,TGI,[45],1490 nM
same,GI50,[46],< 10 nM
same,TGI,[46],193 nM
same,GI50,[47],< 10 nM
same,TGI,[47],122 nM
same,GI50,[48],88.1 nM
same,TGI,[48],1590 nM
same,GI50,[49],< 10 nM
same,TGI,[49],1260 nM
same,GI50,[50],449 nM
same,TGI,[50],13600 nM
same,GI50,[51],102 nM
same,TGI,[51],1240 nM
same,GI50,[52],< 10 nM
same,TGI,[52],19.4 nM
same,GI50,[53],382 nM
same,TGI,[53],12500 nM
same,GI50,[54],< 10 nM
same,TGI,[54],2660 nM
CNC(=O)c1cc2c(Oc3ccc(NC(=O)C4(C(=O)Nc5ccc(F)cc5)CC4)cc3)ccnc2cc1OC,GI50,[1],1430 nM
same,TGI,[1],4450 nM
same,GI50,[2],3720 nM
same,TGI,[2],> 100000 nM
same,GI50,[3],1480 nM
same,TGI,[3],3410 nM
same,GI50,[4],1670 nM
same,TGI,[4],5700 nM
same,GI50,[55],3170 nM
same,TGI,[55],19900 nM
same,GI50,[5],1830 nM
same,TGI,[5],5630 nM
same,GI50,[6],1810 nM
same,TGI,[6],9370 nM
same,GI50,[7],1370 nM
same,TGI,[7],5990 nM
same,GI50,[8],601 nM
same,TGI,[8],2730 nM
same,GI50,[9],2560 nM
same,TGI,[9],12400 nM
same,GI50,[10],1610 nM
same,TGI,[10],3420 nM
same,GI50,[11],3470 nM
same,TGI,[11],24300 nM
same,GI50,[12],507 nM
same,TGI,[12],8210 nM
same,GI50,[13],2960 nM
same,TGI,[13],13300 nM
same,GI50,[14],1630 nM
same,TGI,[14],3470 nM
same,GI50,[15],1080 nM
same,TGI,[15],3010 nM
same,GI50,[16],1680 nM
same,TGI,[16],5230 nM
same,GI50,[17],1990 nM
same,TGI,[17],4900 nM
same,GI50,[18],1640 nM
same,TGI,[18],3080 nM
same,GI50,[19],1720 nM
same,TGI,[19],10400 nM
same,GI50,[20],3100 nM
same,TGI,[20],11200 nM
same,GI50,[21],2190 nM
same,TGI,[21],5670 nM
same,GI50,[22],3870 nM
same,TGI,[22],> 100000 nM
same,GI50,[23],2130 nM
same,TGI,[23],4050 nM
same,GI50,[24],3940 nM
same,TGI,[24],> 100000 nM
same,GI50,[26],471 nM
same,TGI,[26],8180 nM
same,GI50,[27],3590 nM
same,TGI,[27],> 100000 nM
same,GI50,[28],2640 nM
same,TGI,[28],8790 nM
same,GI50,[29],180 nM
same,TGI,[29],3230 nM
same,GI50,[30],1960 nM
same,TGI,[30],5530 nM
same,GI50,[31],2870 nM
same,TGI,[31],9790 nM
same,GI50,[32],4090 nM
same,TGI,[32],74600 nM
same,GI50,[33],3350 nM
same,TGI,[33],> 100000 nM
same,GI50,[34],1570 nM
same,TGI,[34],4590 nM
same,GI50,[36],2490 nM
same,TGI,[36],6880 nM
same,GI50,[37],2850 nM
same,TGI,[37],14100 nM
same,GI50,[38],261 nM
same,TGI,[38],1290 nM
same,GI50,[39],4120 nM
same,TGI,[39],> 100000 nM
same,GI50,[40],3090 nM
same,TGI,[40],12500 nM
same,GI50,[41],3360 nM
same,TGI,[41],31500 nM
same,GI50,[42],2720 nM
same,TGI,[42],10400 nM
same,GI50,[43],546 nM
same,TGI,[43],4730 nM
same,GI50,[44],2350 nM
same,TGI,[44],20500 nM
same,GI50,[45],3500 nM
same,TGI,[45],17100 nM
same,GI50,[46],3380 nM
same,TGI,[46],14400 nM
same,GI50,[47],1400 nM
same,TGI,[47],2720 nM
same,GI50,[48],1630 nM
same,TGI,[48],6070 nM
same,GI50,[49],2900 nM
same,TGI,[49],> 100000 nM
same,GI50,[50],2960 nM
same,TGI,[50],12300 nM
same,GI50,[51],3330 nM
same,TGI,[51],> 100000 nM
same,GI50,[52],1860 nM
same,TGI,[52],5520 nM
same,GI50,[53],16200 nM
same,TGI,[53],> 100000 nM
same,GI50,[54],4560 nM
same,TGI,[54],> 100000 nM
